Drawing on US8299077B2 (Roche Palo Alto LLC, priority 2009, dated 2012), this text covers IC50 and melting point for 17 molecules.

The IC50 is the concentration at which inhibition is half-maximal. Read a high IC50 as lower potency. Broadly, the melting point is the temperature of the solid-liquid transition.

SMILES strings stand for the structures.

The first data set concerns B cell receptor-mediated activation of B cells in human blood (CD69 expression). Kind of data set: Inhibition of B cell activation in whole blood measured by CD69 expression. Type of data set: cell-based. The following applies: anti-IgM stimulation, 20 h, 50% decrease of CD69-positive cells that are also CD20-positive. In short, it runs like this:
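Healthy-donor human whole blood (heparin) preincubated with compound (nine-point, three-fold dilutions) for 30 min at 37 °C, then stimulated with goat F(ab′)2 anti-human IgM (50 μg/ml final) for 20 h. CD69-positive B cells (CD20 gating) measured by flow cytometry as percent positive; IC50 from dose-response fit.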
In the case of `CC1CCN=C(Nc2cc(-c3cccc(-n4ncc5cc(C(C)(C)C)cc(F)c5c4=O)c3CO)cn(C)c2=O)O1` (centres unmarked) [Example I-49, 6-tert-Butyl-8-fluoro-2-{2-hydroxymethyl-3-[1-methyl-5-(6-methyl-5,6-dihydro-4H-[1,3]oxazin-2-ylamino)-6-oxo-1,6-dihydro-pyridin-3-yl]-phenyl}-2H-phthalazin-1-one], the midpoint of inhibition, the IC50, lay at 3130 nM.
Molecule `Cn1cc(-c2cccc(-n3ncc4cc(C(C)(C)C)cc(F)c4c3=O)c2CO)cc(NC2=NCCCO2)c1=O` [Example I-44, 6-tert-Butyl-2-{3-[5-(5,6-dihydro-4H-[1,3]oxazin-2-ylamino)-1-methyl-6-oxo-1,6-dihydro-pyridin-3-yl]-2-hydroxymethyl-phenyl}-8-fluoro-2H-phthalazin-1-one] came in with an IC50 of 1730 nM. Compared with the last molecule, the IC50 is about 1.8-fold lower.
On the same count and under the same terms, under `CNCCOc1ccc(Nc2cc(-c3cccc(-n4ncc5cc(C(C)(C)C)cc(F)c5c4=O)c3CO)cn(C)c2=O)nc1` [Example I-88, 6-tert-Butyl-8-fluoro-2-(2-hydroxymethyl-3-{1-methyl-5-[5-(2-methylamino-ethoxy)-pyridin-2-ylamino]-6-oxo-1,6-dihydro-pyridin-3-yl}-phenyl)-2H-phthalazin-1-one] stands 9 nM; under `CN1CCN(c2ccc(Nc3cc(-c4cccc(-n5ccc6cc(C7(C)CC7)cc(F)c6c5=O)c4CO)cn(C)c3=O)nc2)CC1` [Example I-55, 8-Fluoro-2-(2-hydroxymethyl-3-{1-methyl-5-[5-(4-methyl-piperazin-1-yl)-pyridin-2-ylamino]-6-oxo-1,6-dihydro-pyridin-3-yl}-phenyl)-6-(1-methyl-cyclopropyl)-2H-isoquinolin-1-one], 16 nM.
For `Cn1ccc(Nc2cc(-c3cccc(-n4ncc5cc(C(C)(C)C)cc(F)c5c4=O)c3CO)cn(C)c2=O)nc1=O` [Example I-23, 6-tert-Butyl-8-fluoro-2-{2-hydroxymethyl-3-[1-methyl-5-(1-methyl-2-oxo-1,2-dihydro-pyrimidin-4-ylamino)-6-oxo-1,6-dihydro-pyridin-3-yl]-phenyl}-2H-phthalazin-1-one], the 50% inhibitory concentration (IC50) stood at 392 nM.
For the molecule `Cn1cc(-c2cccc(-n3ncc4cc(C(C)(C)C)cc(F)c4c3=O)c2CO)cc(Nc2ccc(C(=O)N3CCOCC3)cn2)c1=O` [Example I-9, 6-tert-Butyl-8-fluoro-2-(2-hydroxymethyl-3-{1-methyl-5-[5-(morpholine-4-carbonyl)-pyridin-2-ylamino]-6-oxo-1,6-dihydro-pyridin-3-yl}-phenyl)-2H-phthalazin-1-one], the IC50 was found to be 1 nM. This IC50 lies about 390-fold lower than the previous one.
In the case of `Cn1cc(-c2cccc(-n3ccc4cc(C(C)(C)O)cc(F)c4c3=O)c2CO)nc(Nc2cnn(CC(F)F)c2)c1=O` [Example I-80, 2-(3-{6-[1-(2,2-Difluoro-ethyl)-1H-pyrazol-4-ylamino]-4-methyl-5-oxo-4,5-dihydro-pyrazin-2-yl}-2-hydroxymethyl-phenyl)-8-fluoro-6-(1-hydroxy-1-methyl-ethyl)-2H-isoquinolin-1-one], the IC50 worked out at 31 nM.
As for `CCc1ccc(Nc2cc(-c3cccc(-n4ncc5cc(C(C)(C)C)cc(F)c5c4=O)c3CO)cn(C)c2=O)nc1` [Example I-33, 6-tert-Butyl-2-{3-[5-(5-ethyl-pyridin-2-ylamino)-1-methyl-6-oxo-1,6-dihydro-pyridin-3-yl]-2-hydroxymethyl-phenyl}-8-fluoro-2H-phthalazin-1-one], half-maximal inhibition (IC50) required 218 nM. Against the preceding molecule, the IC50 is about 7-fold higher.
The same measure, in the same setting: under `CCN1CCN(c2ccc(Nc3cc(-c4cccc(N5CCc6cc(C7CC7)cc(F)c6C5=O)c4CO)cn(C)c3=O)nc2)CC1` [Example I-12, 6-Cyclopropyl-2-(3-{5-[5-(4-ethyl-piperazin-1-yl)-pyridin-2-ylamino]-1-methyl-6-oxo-1,6-dihydro-pyridin-3-yl}-2-hydroxymethyl-phenyl)-8-fluoro-3,4-dihydro-2H-isoquinolin-1-one] stands 43 nM; under `Cn1cc(-c2cccc(-n3ncc4cc(C(C)(C)C)cc(F)c4c3=O)c2CO)cc(Nc2ccc(C3CCNCC3)cn2)c1=O` [Example I-16, 6-tert-Butyl-8-fluoro-2-{3-[5-(1′,2′,3′,4′,5′,6′-hexahydro-[3,4′]bipyridinyl-6-ylamino)-1-methyl-6-oxo-1,6-dihydro-pyridin-3-yl]-2-hydroxymethyl-phenyl}-2H-phthalazin-1-one], 48 nM.
Same read-out and setting: under `COCCNCc1ccc(Nc2cc(-c3cccc(-n4ccc5cc(C6CC6)cc(F)c5c4=O)c3CO)cn(C)c2=O)nc1` [Example I-75, 6-Cyclopropyl-8-fluoro-2-[2-hydroxymethyl-3-(5-{5-[(2-methoxy-ethylamino)-methyl]-pyridin-2-ylamino}-1-methyl-6-oxo-1,6-dihydro-pyridin-3-yl)-phenyl]-2H-isoquinolin-1-one] stands 37 nM.
The molecule `CCC(O)(CC)c1cc(F)c2c(=O)n(-c3cccc(-c4cc(Nc5ccc(N6CCC(C)(O)CC6)cn5)c(=O)n(C)c4)c3CO)ccc2c1` [Example I-64, 6-(1-Ethyl-1-hydroxy-propyl)-8-fluoro-2-{2-hydroxymethyl-3-[5-(4-hydroxy-4-methyl-3,4,5,6-tetrahydro-2H-[1,3′]bipyridinyl-6′-ylamino)-1-methyl-6-oxo-1,6-dihydro-pyridin-3-yl]-phenyl}-2H-isoquinolin-1-one] showed an IC50 of 27 nM.
`Cn1cc(-c2cccc(-n3ncc4cc(C(C)(C)C)cc(F)c4c3=O)c2CO)cc(Nc2ccc(C(=O)O)cn2)c1=O` [Example I-34, 6-{5-[3-(6-tert-Butyl-8-fluoro-1-oxo-1H-phthalazin-2-yl)-2-hydroxymethyl-phenyl]-1-methyl-2-oxo-1,2-dihydro-pyridin-3-ylamino}-nicotinic acid] yielded an IC50 of 258 nM. This IC50 is about 9.6-fold higher than that of the molecule before.
With `Cn1cc(-c2cccc(-n3ncc4cc(C(C)(C)C)cc(F)c4c3=O)c2CO)cc(Nc2ccc(N3CCC(C)(O)CC3)cn2)c1=O` [Example I-17, 6-tert-Butyl-8-fluoro-2-{2-hydroxymethyl-3-[5-(4-hydroxy-4-methyl-3,4,5,6-tetrahydro-2H-[1,3′]bipyridinyl-6′-ylamino)-1-methyl-6-oxo-1,6-dihydro-pyridin-3-yl]-phenyl}-2H-phthalazin-1-one], 10 nM corresponded to half-maximal inhibition (IC50). This IC50 is about 26-fold lower than that of the molecule before.

Test system in a further data set: not given
Assay: not given
Details: not given
Molecule `Cn1cc(-c2cccc(-n3ncc4cc(C(C)(C)C)cc(F)c4c3=O)c2CO)cc(Nc2ccc(C(C)(C)O)cn2)c1=O` [Example 37, 6-tert-Butyl-8-fluoro-2-(2-hydroxymethyl-3-{5-[5-(1-hydroxy-1-methyl-ethyl)-pyridin-2-ylamino]-1-methyl-6-oxo-1,6-dihydro-pyridin-3-yl}-phenyl)-2H-phthalazin-1-one] registered a melting point of 200 to 205 °C.
Still for that read-out and setting: under `Cn1cc(-c2cccc(-n3ncc4cc(C(C)(C)C)cc(F)c4c3=O)c2CO)cc(Nc2ccc(C(C)(C)C(=O)O)cn2)c1=O` [Example 18, 2-(6-{5-[3-(6-tert-butyl-8-fluoro-1-oxo-1H-phthalazin-2-yl)-2-hydroxymethyl-phenyl]-1-methyl-2-oxo-1,2-dihydro-pyridin-3-ylamino}-pyridin-3-yl)-2-methyl-propionic acid] stands 218 to 220 °C; under `CCNC(C)(C)c1ccc(Nc2cc(-c3cccc(-n4ncc5cc(C(C)(C)C)cc(F)c5c4=O)c3CO)cn(C)c2=O)nc1` [Example 260, 6-tert-Butyl-2-(3-{5-[5-(1-ethylamino-1-methyl-ethyl)-pyridin-2-ylamino]-1-methyl-6-oxo-1,6-dihydro-pyridin-3-yl}-2-hydroxymethyl-phenyl)-8-fluoro-2H-phthalazin-1-one], 195 to 200 °C.
